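Growth conditions: 96-well plates. Treatment: test compound, 48 hours, 5 concentrations. Analysis: linear interpolation between bracketing concentrations; unreached endpoints set to highest concentration. GI50 marks 50% less growth. TGI marks complete inhibition of growth.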

This passage reports GI50 and TGI results from PubChem BioAssay (NCI).

Test systems include A498 renal; HCC-2998 colon; HCT-15 colon; HL-60(TB) leukemia; IGROV1 ovarian; OVCAR-3 ovarian; SK-MEL-5 melanoma; U251 CNS; OVCAR-4 ovarian; SNB-75 CNS.
Common to all, as to assay: growth of human tumour cells (NCI), 48 h

`c1ccc2nc3c(cc4ccccn43)nc2c1`: the GI50 was 31.4 µM with A498 renal; 61.8 µM with HCC-2998 colon; 73.4 µM in the experiment on HCT-15 colon; more than 100 µM in the experiment with HL-60(TB) leukemia; 1.81 µM in the experiment on IGROV1 ovarian; more than 100 µM with OVCAR-3 ovarian. Moreover, the GI50 in the experiment on SK-MEL-5 melanoma was 25.8 µM; in the experiment on U251 CNS it was 39.9 µM. Also, the TGI with A498 renal is more than 100 µM; in the experiment with HCC-2998 colon it was more than 100 µM; in the experiment with HCT-15 colon, more than 100 µM; in the experiment on HL-60(TB) leukemia, more than 100 µM; with IGROV1 ovarian, 26.1 µM; in the experiment with OVCAR-3 ovarian, more than 100 µM. For the same compound, the TGI in the experiment with SK-MEL-5 melanoma and in the experiment with U251 CNS was more than 100 µM throughout.
Turning to `O=c1ncccn1C1C=C(CO)C(O)C1O` (stereo unspecified), the TGI in the experiment with A498 renal, in the experiment on HCC-2998 colon, with HCT-15 colon, in the experiment with HL-60(TB) leukemia, in the experiment with OVCAR-3 ovarian and in the experiment with OVCAR-4 ovarian was more than 50 µM each time. For the same compound, the TGI with SK-MEL-5 melanoma and in the experiment with U251 CNS was more than 50 µM each time.
As to `CCOC(=O)/C(=C/c1cccc(OC)c1)N(CC)CC`, the TGI in the experiment with A498 renal, with HCT-15 colon, with HL-60(TB) leukemia, with IGROV1 ovarian, in the experiment with OVCAR-3 ovarian and in the experiment on OVCAR-4 ovarian was more than 100 µM in each case. Further, the TGI in the experiment with SK-MEL-5 melanoma and in the experiment on U251 CNS was more than 100 µM each time.
Regarding `CCSc1nc(N)c2cn[nH]c2n1`, the GI50 in the experiment on A498 renal is 20.7 µM; with HCT-15 colon it was 41.7 µM; in the experiment with IGROV1 ovarian, 35.9 µM; in the experiment with OVCAR-3 ovarian, 22.1 µM; with OVCAR-4 ovarian it was 32.7 µM; in the experiment with SK-MEL-5 melanoma it was 18.5 µM. Besides, the GI50 in the experiment with U251 CNS was 43.1 µM. Besides, the TGI with A498 renal is 50.2 µM; in the experiment on HCT-15 colon it was more than 100 µM; in the experiment with IGROV1 ovarian it was more than 100 µM; in the experiment on OVCAR-3 ovarian, 72.1 µM; in the experiment on OVCAR-4 ovarian, 89 µM; with SK-MEL-5 melanoma, 43.6 µM. Also, in the experiment on U251 CNS, the TGI is more than 100 µM.
On to `C[C@H]1[C@H](C)CC[C@]2(C(=O)NCCNCCN)CC[C@]3(C)C(=CC[C@@H]4[C@@]5(C)CCC(=O)C(C)(C)[C@@H]5CC[C@]43C)[C@H]12`, for which the GI50 was 11.8 µM in the experiment on A498 renal; 1.66 µM with HCC-2998 colon; 1.73 µM in the experiment with HCT-15 colon; 1.71 µM in the experiment on IGROV1 ovarian; 1.8 µM in the experiment on OVCAR-3 ovarian; 1.93 µM in the experiment on OVCAR-4 ovarian. Besides, the GI50 with SK-MEL-5 melanoma is 1.8 µM; in the experiment with U251 CNS, 1.66 µM. In addition, the TGI was 27.2 µM with A498 renal; 3.07 µM in the experiment with HCC-2998 colon; 3.29 µM with HCT-15 colon; 3.17 µM with IGROV1 ovarian; 3.3 µM with OVCAR-3 ovarian; 4 µM in the experiment on OVCAR-4 ovarian. The values for the TGI in the experiment with SK-MEL-5 melanoma and in the experiment on U251 CNS were 3.23 µM and 3.17 µM, respectively.
On to `CCN(CC)CCNC(=O)c1cn2ncnc(Oc3ccc(NC(=O)Nc4ccc(Cl)c(C(F)(F)F)c4)c(F)c3)c2c1C`, for which the GI50 in the experiment on A498 renal was 1.84 µM; in the experiment with HCC-2998 colon it was 2.17 µM; with HCT-15 colon it was 1.46 µM; in the experiment on IGROV1 ovarian, 1.85 µM; with OVCAR-3 ovarian, 1.77 µM; with OVCAR-4 ovarian it was 1.74 µM. Also, the GI50 is 1.75 µM with SK-MEL-5 melanoma, 0.412 µM in the experiment with SNB-75 CNS and 1.59 µM in the experiment with U251 CNS. The TGI in the experiment with A498 renal was determined as 3.28 µM; in the experiment on HCC-2998 colon, 3.77 µM; with HCT-15 colon, 2.89 µM; in the experiment with IGROV1 ovarian, 3.5 µM; in the experiment on OVCAR-3 ovarian it was 3.21 µM; in the experiment on OVCAR-4 ovarian, 3.36 µM. Also, the values for the TGI in the experiment with SK-MEL-5 melanoma, with SNB-75 CNS and in the experiment with U251 CNS were 3.15 µM, 1.97 µM and 3.07 µM, respectively.
Take `COC1OC(C)C(OCc2ccccc2)C(OS(=O)(=O)c2ccc(C)cc2)C1OS(=O)(=O)c1ccc(C)cc1` (stereo unspecified): the TGI with HCC-2998 colon, with HCT-15 colon, in the experiment with HL-60(TB) leukemia, in the experiment on IGROV1 ovarian, in the experiment with OVCAR-3 ovarian and with OVCAR-4 ovarian was more than 100 µM throughout. For the same compound, the TGI in the experiment with SK-MEL-5 melanoma, with SNB-75 CNS and in the experiment with U251 CNS was more than 100 µM throughout.
Take `CC(=O)N(C(C)=O)C1=C2c3ccccc3N(S(=O)(=O)c3ccccc3)C2n2c(=O)n(-c3ccccc3)c(=O)n2C1` (stereo unspecified): the TGI was 62.4 µM with HCC-2998 colon; more than 100 µM in the experiment on HCT-15 colon; 63.3 µM in the experiment with HL-60(TB) leukemia; more than 100 µM in the experiment with IGROV1 ovarian; 81.9 µM with OVCAR-3 ovarian; 58.8 µM with SK-MEL-5 melanoma. Also, the TGI was 51.3 µM with SNB-75 CNS and more than 100 µM in the experiment with U251 CNS.
Regarding `O=c1c2c3c(sc2n2c(-c4cc(-c5ccccc5)nn4-c4ccccc4)nnc2n1Cc1ccccc1)CCCC3`, the GI50 with A498 renal, in the experiment with HCC-2998 colon, with HCT-15 colon, with OVCAR-3 ovarian, with OVCAR-4 ovarian and in the experiment on SK-MEL-5 melanoma was more than 100 µM in each case. In addition, the figures for the GI50 with SNB-75 CNS and in the experiment with U251 CNS were 12.1 µM and more than 100 µM, respectively. In addition, the TGI in the experiment with A498 renal, in the experiment with HCC-2998 colon, in the experiment on HCT-15 colon, with OVCAR-3 ovarian, in the experiment on OVCAR-4 ovarian and in the experiment on SK-MEL-5 melanoma was more than 100 µM each time. Also, the TGI is 56.4 µM in the experiment with SNB-75 CNS and more than 100 µM in the experiment on U251 CNS.
On to `COc1cccc(/C=C2\CCC(C)(CN(C)C)C2=O)c1` (stereo unspecified), for which the TGI in the experiment with A498 renal, in the experiment on HCC-2998 colon, in the experiment with HCT-15 colon, in the experiment with IGROV1 ovarian, with OVCAR-3 ovarian and in the experiment with OVCAR-4 ovarian was more than 100 µM throughout. Also, the TGI in the experiment on SK-MEL-5 melanoma, in the experiment on SNB-75 CNS and with U251 CNS was more than 100 µM each time.
As for `O=C(NC12CC3CC(CC(C3)C1)C2)C(=O)c1c[nH]c2ccc(Cl)cc12`, the TGI in the experiment with HCC-2998 colon is more than 100 µM; with HCT-15 colon, more than 100 µM; with HL-60(TB) leukemia, more than 100 µM; with IGROV1 ovarian it was more than 100 µM; in the experiment on OVCAR-3 ovarian, 57.6 µM; in the experiment on OVCAR-4 ovarian it was 56 µM. Moreover, the TGI was more than 100 µM in the experiment on SK-MEL-5 melanoma, 52.1 µM with SNB-75 CNS and more than 100 µM with U251 CNS.
